Laboratory results taken from publication PMC10650415, “Synthesis of Tetracyclic Spirooxindolepyrrolidine-Engrafted Hydantoin Scaffolds: Crystallographic Analysis, Molecular Docking Studies and Evaluation of Their Antimicrobial, Anti-Inflammatory and Analgesic Activities” (Molecules, 2023).
Values after ≈ are worked out from the molar mass of the structure shown.

Legend:
M. luteus NCIMB 8166 = experiment: MBC by the agar method; settings: Micrococcus luteus, NCIMB8166
Protocol: (§2) To further determine the killing efficiency of the synthesized spiropyrrolidines against selected strains, the minimum bactericidal concentration (MBC) and the minimum fungicidal concentration (MFC) were assessed by the agar method [54].

P. aeruginosa ATCC 27950 = experiment: MBC by the agar method; settings: Pseudomonas aeruginosa, ATCC27950
Protocol: as §2

S. aureus ATCC 25923 = experiment: MBC by the agar method; settings: Staphylococcus aureus, ATCC25923
Protocol: as §2

[1] = molecular target: T1, Lipoxygenase-5 (LOX-5) enzyme (Homo sapiens, UniProt P09917); experiment: In vitro lipoxygenase (LOX-5) inhibitory assay; format: biochemical; settings: mean ± SEM, n = 5; read-out: IC50 (LOX-5 inhibition) (converted)
T1 construct: purchased sigma 437996-500U
T1 sequence (P09917 1-674): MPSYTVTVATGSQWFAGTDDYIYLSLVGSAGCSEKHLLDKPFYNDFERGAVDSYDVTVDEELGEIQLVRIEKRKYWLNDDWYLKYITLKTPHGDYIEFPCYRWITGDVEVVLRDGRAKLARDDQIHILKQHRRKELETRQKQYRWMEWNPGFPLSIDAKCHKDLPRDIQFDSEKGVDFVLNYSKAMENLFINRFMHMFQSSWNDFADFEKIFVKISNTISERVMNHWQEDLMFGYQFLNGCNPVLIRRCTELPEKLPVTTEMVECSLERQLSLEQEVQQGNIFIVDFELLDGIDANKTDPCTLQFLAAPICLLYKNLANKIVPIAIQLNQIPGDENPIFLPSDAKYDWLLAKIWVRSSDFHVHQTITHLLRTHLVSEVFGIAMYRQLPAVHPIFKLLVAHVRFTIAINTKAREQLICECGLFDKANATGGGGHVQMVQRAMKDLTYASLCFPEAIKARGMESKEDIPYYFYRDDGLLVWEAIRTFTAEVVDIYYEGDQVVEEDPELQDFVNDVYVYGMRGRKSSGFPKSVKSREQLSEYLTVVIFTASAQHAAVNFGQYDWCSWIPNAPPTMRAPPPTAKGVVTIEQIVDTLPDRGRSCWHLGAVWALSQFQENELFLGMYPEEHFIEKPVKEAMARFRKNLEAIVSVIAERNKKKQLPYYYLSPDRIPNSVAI
Protocol: Lipoxygenases are a family of monomeric proteins that catalyze oxidation of polyunsaturated fatty acids (PUFA) (linoleic, linolenic and arachidonic acid) to produce hydroperoxides. Fractions’ anti-LOX activity was also measured as inhibition of linoleic acid’s peroxidation to hydroperoxylinoleic acid.
To evaluate the prospects of the newly synthesized spirooxindoles as promising drug candidates, we first studied their inhibitory potency against the Lipoxygenase-5 (LOX-5) enzyme.

[2] = tested on: Staphylocoocus aureus ATCC 25923; experiment: MIC, in vitro micro diffusion method; format: cell-based; settings: Staphylococcus aureus, ATCC25923; S. aureus ATCC 25923
From the text: (§1) In this part, the spiropyrrolidines 4a–m were selected to be screening for their antimicrobial activities, using in vitro micro diffusion method, against multiple bacterial strains (Staphylocoocus aureus ATCC 25923, Escherichia coli ATCC 25922, Pseudomonas aeruginosa ATCC 27950, Micrococcus luteus NCIMB 8166), and two pathogenic reference yeasts namely Candida albicans ATCC 90028 and Candida kreusei ATCC 6258.

[3] = tested on: Candida albicans ATCC 90028; experiment: MIC, in vitro micro diffusion method; format: cell-based; settings: ATCC90028, C. albicans ATCC 90028
From the text: as §1

[4] = tested on: Candida kreusei ATCC 6258; experiment: MIC, in vitro micro diffusion method; format: cell-based; settings: C. krusei ATCC 6258
From the text: as §1

C. albicans ATCC 90028 = experiment: MFC by the agar method; settings: for MFC/MIC ratio: C. Albicans, ≤ 4 fungicidal, >4 fungistatic; for MFC: Candida albicans, ATCC90028
Protocol: as §2

E. coli ATCC 25922 = experiment: MBC by the agar method
Protocol: as §2

C. kreusei ATCC 6258 = experiment: MFC by the agar method; settings: for MFC/MIC ratio: C. Krusei, ≤ 4 fungicidal, >4 fungistatic; for MFC: Pichia kudriavzevii, ATCC6258
Protocol: as §2

[5] = tested on: Escherichia coli ATCC 25922; experiment: MIC, in vitro micro diffusion method; format: cell-based; settings: ATCC25922, E. coli ATCC 25922
[6] = tested on: Micrococcus luteus NCIMB 8166; experiment: MIC, in vitro micro diffusion method; format: cell-based; settings: NCIMB8166, M. luteus NCIMB 8166
From the text: as §1

[7] = set-up: method as in doi:10.1002/slct.201901228; settings: read-out: IC50 (anti-inflammatory efficacy); cited from earlier work
[8] = Escherichia coli, ATCC25922, E. coli ATCC 25922

| Structure (SMILES) | MBC (M. luteus NCIMB 8166) | MBC (P. aeruginosa ATCC 27950) | MBC (S. aureus ATCC 25923) | IC50 [1] | MIC [2] | MIC [3] | MIC [4] | MFC/MIC ratio (C. albicans ATCC 90028) | MFC (C. albicans ATCC 90028) | MBC (E. coli ATCC 25922; [8]) | MFC/MIC ratio (C. kreusei ATCC 6258) | MFC (C. kreusei ATCC 6258) | melting point | MIC [5] | MIC [6] | MBC (E. coli ATCC 25922; E. coli ATCC 25922) | IC50 [7] |
| --- | --- | --- | --- | --- | --- | --- | --- | --- | --- | --- | --- | --- | --- | --- | --- | --- | --- |
| O=C1NC(=O)[C@]2(N1)[C@@H](c1ccc(Cl)cc1)[C@H](c1ccccc1)N[C@@]21C(=O)Nc2ccccc21 (racemic) [4e] | > 1500 µg/mL | 188 µg/mL (≈ 409 µM) | 93.8 µg/mL (≈ 204 µM) | 3860 µM | 46.9 µg/mL (≈ 102 µM) | 23.4 µg/mL (≈ 51.1 µM) | 46.9 µg/mL (≈ 102 µM) | ≤ 4 | 23.4 µg/mL (≈ 51.1 µM) | 750 µg/mL (≈ 1630 µM) | ≤ 4 | 46.9 µg/mL (≈ 102 µM) | 235 °C |  |  |  |  |
| O=C1NC(=O)[C@]2(N1)[C@@H](c1ccccc1O)[C@H](c1ccccc1)N[C@@]21C(=O)Nc2ccc(Cl)cc21 (stereo in doubt) [4m] | 188 µg/mL (≈ 395 µM) | 188 µg/mL (≈ 395 µM) | 93.8 µg/mL (≈ 197 µM) | 2990 µM |  |  |  | ≤ 4 | 93.8 µg/mL (≈ 197 µM) | 188 to 374 µg/mL (≈ 395 to 788 µM) | ≤ 4 | 93.8 µg/mL (≈ 197 µM) | 223 °C | 188 µg/mL (≈ 395 µM) | 93.8 µg/mL (≈ 197 µM) | 375 µg/mL (≈ 790 µM) |  |
| O=C1/C(=C/c2cccc(F)c2)CCC[C@@]12[C@H](c1cccc(F)c1)[C@@H]1CSCN1[C@]21C(=O)Nc2ccccc21 [IVc] |  |  |  |  |  |  |  |  |  |  |  |  |  |  |  |  | 2.4 ± 1.3 µM |
| CC(C)Cc1ccc(C(C)C(=O)O)cc1 (stereo not shown) [ibuprofen] |  |  |  |  |  |  |  |  |  |  |  |  |  |  |  |  | 11.2 ± 1.9 µM |
